# Experimental data from ChEMBL document CHEMBL4715821, “Discovery of 4-ethoxy-7H-pyrrolo[2,3-d]pyrimidin-2-amines as potent, selective and orally bioavailable LRRK2 inhibitors” (Bioorg Med Chem Lett, 2018).
# Columns and labels:
# [1] = Lipophilicity, logD of compound at pH 7.4; settings: buffer
# [2] = target: Cytochrome P450 3A4 (Homo sapiens, UniProt P08684); assay: Inhibition of human CYP3A4; type: ADME
# [3] = target: Nuclear receptor subfamily 1 group I member 2 (Homo sapiens, UniProt O75469); assay: Inhibition of human PXR
# [4] = In vivo inhibition of LRRK2 in Han-Wistar rat assessed as reduction in Ser935 phosphorylation in brain at 30 mg/kg, po by Western blot analysis; type: functional; design: scale not given: the % may be the effect or the level left
# [5] = In vivo inhibition of LRRK2 in Han-Wistar rat assessed as reduction in Ser935 phosphorylation in brain at 100 mg/kg, po by Western blot analysis; type: functional; design: scale not given: the % may be the effect or the level left
# [6] = In vivo inhibition of LRRK2 in Han-Wistar rat assessed as reduction in Ser935 phosphorylation in kidney at 10 to 100 mg/kg, po by Western blot analysis; type: functional; design: scale not given: the % may be the effect or the level left; settings: dose 10-100 mg/kg
# [7] = target: RAC-beta serine/threonine-protein kinase (Homo sapiens) (UniProt P31751); assay: Inhibition of wild-type human partial length AKT2 expressed in bacterial expression system assessed as residual activity at 1 uM by Kinomescan method relative to control
# [8] = target: Calcium/calmodulin-dependent protein kinase type II subunit beta (Homo sapiens) (UniProt Q13554); assay: Inhibition of wild-type human partial length CAMK2B (M1 to Q380 residues) expressed in bacterial expression system assessed as residual activity at 1 uM by Kinomescan method relative to control
# [9] = target: Calcium/calmodulin-dependent protein kinase type II subunit delta (Homo sapiens) (UniProt Q13557); assay: Inhibition of wild-type human partial length CAMK2D (M1 to E329 residues) expressed in bacterial expression system assessed as residual activity at 1 uM by Kinomescan method relative to control
# [10] = target: Calcium/calmodulin-dependent protein kinase type II subunit gamma (Homo sapiens) (UniProt Q13555); assay: Inhibition of wild-type human partial length CAMK2G (R9 to A303 residues) expressed in bacterial expression system assessed as residual activity at 1 uM by Kinomescan method relative to control
# [11] = target: Casein kinase I isoform gamma-3 (Homo sapiens) (UniProt Q9Y6M4); assay: Inhibition of CK1g3 (unknown origin) assessed as residual activity at 1 uM by Kinomescan method relative to control
# Chain of Casein kinase I isoform gamma-3 (Homo sapiens) (Q9Y6M4 whole entry, looked up, the tested form may be a part, canonical isoform): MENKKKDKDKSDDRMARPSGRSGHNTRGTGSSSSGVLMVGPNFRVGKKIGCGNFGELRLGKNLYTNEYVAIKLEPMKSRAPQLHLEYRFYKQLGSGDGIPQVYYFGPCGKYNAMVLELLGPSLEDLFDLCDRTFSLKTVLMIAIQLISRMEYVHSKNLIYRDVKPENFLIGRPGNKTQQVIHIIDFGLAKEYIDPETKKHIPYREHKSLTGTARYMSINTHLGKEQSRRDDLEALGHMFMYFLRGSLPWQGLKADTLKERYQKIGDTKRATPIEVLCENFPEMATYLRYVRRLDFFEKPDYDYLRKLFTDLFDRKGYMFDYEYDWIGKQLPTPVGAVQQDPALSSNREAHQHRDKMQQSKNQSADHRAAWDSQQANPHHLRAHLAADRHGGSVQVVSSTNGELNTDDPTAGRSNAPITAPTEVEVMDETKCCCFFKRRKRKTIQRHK
# [12] = target: Dual specificity tyrosine-phosphorylation-regulated kinase 2 (Homo sapiens) (UniProt Q92630); assay: Inhibition of wild-type human full length DYRK2 (M1 to S528 residues) expressed in mammalian expression system assessed as residual activity at 1 uM by Kinomescan method relative to control
# Chain of Dual specificity tyrosine-phosphorylation-regulated kinase 2 (Homo sapiens) (Q92630 whole entry, the tested form may be a part): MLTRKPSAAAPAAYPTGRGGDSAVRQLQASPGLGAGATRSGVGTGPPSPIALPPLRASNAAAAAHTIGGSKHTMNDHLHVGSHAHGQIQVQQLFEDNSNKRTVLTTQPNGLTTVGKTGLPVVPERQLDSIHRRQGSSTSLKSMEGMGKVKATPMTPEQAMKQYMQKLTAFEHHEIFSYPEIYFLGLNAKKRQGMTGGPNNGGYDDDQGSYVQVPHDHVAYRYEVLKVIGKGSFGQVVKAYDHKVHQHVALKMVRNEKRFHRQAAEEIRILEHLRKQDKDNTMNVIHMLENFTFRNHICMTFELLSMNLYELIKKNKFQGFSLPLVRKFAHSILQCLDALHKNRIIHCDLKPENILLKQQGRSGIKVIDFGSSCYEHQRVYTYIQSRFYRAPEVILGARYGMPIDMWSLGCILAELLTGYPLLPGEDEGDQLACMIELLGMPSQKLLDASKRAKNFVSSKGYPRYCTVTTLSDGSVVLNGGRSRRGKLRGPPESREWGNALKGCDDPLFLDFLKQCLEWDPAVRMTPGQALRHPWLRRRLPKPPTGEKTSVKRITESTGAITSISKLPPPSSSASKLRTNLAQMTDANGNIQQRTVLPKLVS
# [13] = target: Ephrin type-A receptor 6 (Homo sapiens) (UniProt Q9UF33); assay: Inhibition of wild-type human partial length EPHA6 (Y700 to E1046 residues) expressed in bacterial expression system assessed as residual activity at 1 uM by Kinomescan method relative to control
# Chain of Ephrin type-A receptor 6 (Homo sapiens) (Q9UF33 whole entry, the tested form may be a part): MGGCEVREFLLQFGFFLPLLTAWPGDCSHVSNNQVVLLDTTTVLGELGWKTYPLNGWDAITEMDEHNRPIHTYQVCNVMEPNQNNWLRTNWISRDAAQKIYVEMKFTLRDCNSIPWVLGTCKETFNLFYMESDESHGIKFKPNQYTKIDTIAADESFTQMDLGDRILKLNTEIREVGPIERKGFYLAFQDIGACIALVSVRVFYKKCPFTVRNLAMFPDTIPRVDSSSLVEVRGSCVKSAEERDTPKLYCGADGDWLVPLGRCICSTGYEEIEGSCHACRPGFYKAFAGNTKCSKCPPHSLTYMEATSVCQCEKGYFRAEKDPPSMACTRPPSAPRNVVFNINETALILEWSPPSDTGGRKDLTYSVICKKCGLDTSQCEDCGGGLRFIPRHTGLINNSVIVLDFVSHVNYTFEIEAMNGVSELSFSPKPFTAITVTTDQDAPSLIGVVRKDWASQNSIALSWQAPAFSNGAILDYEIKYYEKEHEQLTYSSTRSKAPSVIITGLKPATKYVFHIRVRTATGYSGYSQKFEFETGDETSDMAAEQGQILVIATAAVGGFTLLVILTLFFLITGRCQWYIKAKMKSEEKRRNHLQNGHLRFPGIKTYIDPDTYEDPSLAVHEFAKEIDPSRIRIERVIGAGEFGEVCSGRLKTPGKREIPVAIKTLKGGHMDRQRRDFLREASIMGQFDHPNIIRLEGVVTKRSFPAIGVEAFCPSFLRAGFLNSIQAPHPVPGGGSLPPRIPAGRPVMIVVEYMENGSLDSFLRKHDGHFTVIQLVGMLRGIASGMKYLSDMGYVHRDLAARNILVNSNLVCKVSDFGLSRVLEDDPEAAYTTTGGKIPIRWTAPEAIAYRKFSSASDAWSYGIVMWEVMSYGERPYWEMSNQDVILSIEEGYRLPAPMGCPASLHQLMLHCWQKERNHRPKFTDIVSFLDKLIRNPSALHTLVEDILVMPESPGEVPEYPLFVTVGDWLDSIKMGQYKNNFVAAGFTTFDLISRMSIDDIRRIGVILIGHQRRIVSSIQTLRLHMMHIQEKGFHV
# [14] = target: Tyrosine-protein kinase JAK2 (Homo sapiens) (UniProt O60674); assay: Inhibition of wild-type human partial length JAK2 JH1 catalytic domain (A829 to G1132 residues) expressed in mammalian expression system assessed as residual activity at 1 uM by Kinomescan method relative to control
# [15] = target: Serine/threonine-protein kinase 26 (Homo sapiens) (UniProt Q9P289); assay: Inhibition of wild-type human full length MST4 (M1 to P416 residues) expressed in mammalian expression system assessed as residual activity at 1 uM by Kinomescan method relative to control
# [16] = target: Serine/threonine-protein kinase Nek3 (Homo sapiens) (UniProt P51956); assay: Inhibition of wild-type human full length NEK3 (M1 to R506 residues) expressed in mammalian expression system assessed as residual activity at 1 uM by Kinomescan method relative to control
# Chain of Serine/threonine-protein kinase Nek3 (Homo sapiens) (P51956 whole entry, the tested form may be a part): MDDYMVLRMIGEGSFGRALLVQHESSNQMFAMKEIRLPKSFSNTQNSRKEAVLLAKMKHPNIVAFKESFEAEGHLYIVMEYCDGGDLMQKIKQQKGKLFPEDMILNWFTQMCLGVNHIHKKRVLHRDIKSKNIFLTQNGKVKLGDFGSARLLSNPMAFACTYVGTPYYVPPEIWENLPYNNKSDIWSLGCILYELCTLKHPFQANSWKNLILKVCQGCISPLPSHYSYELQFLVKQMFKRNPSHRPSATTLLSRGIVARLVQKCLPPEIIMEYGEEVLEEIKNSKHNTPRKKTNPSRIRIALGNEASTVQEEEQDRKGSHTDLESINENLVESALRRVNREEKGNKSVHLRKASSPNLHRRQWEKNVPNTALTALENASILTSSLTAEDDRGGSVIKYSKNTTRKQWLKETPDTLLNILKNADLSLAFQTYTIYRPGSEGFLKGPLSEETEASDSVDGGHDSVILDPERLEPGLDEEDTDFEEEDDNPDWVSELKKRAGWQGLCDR
# [17] = target: Mitogen-activated protein kinase 11 (Homo sapiens) (UniProt Q15759); assay: Inhibition of wild-type human full length p38-beta (M1 to Q364 residues) expressed in bacterial expression system assessed as residual activity at 1 uM by Kinomescan method relative to control
# [18] = target: Platelet-derived growth factor receptor alpha (Homo sapiens) (UniProt P16234); assay: Inhibition of wild-type human partial length PDGFRA (V575 to D1002 residues) expressed in mammalian expression system assessed as residual activity at 1 uM by Kinomescan method relative to control
# [19] = species: Homo sapiens; assay: Inhibition of PKA (unknown origin) assessed as residual activity at 1 uM by Kinomescan method relative to control
# [20] = target: Protein kinase C delta type (Homo sapiens) (UniProt Q05655); assay: Inhibition of PKCdelta (unknown origin) assessed as residual activity at 1 uM by Kinomescan method relative to control
# Chain of Protein kinase C delta type (Homo sapiens) (Q05655 whole entry, looked up): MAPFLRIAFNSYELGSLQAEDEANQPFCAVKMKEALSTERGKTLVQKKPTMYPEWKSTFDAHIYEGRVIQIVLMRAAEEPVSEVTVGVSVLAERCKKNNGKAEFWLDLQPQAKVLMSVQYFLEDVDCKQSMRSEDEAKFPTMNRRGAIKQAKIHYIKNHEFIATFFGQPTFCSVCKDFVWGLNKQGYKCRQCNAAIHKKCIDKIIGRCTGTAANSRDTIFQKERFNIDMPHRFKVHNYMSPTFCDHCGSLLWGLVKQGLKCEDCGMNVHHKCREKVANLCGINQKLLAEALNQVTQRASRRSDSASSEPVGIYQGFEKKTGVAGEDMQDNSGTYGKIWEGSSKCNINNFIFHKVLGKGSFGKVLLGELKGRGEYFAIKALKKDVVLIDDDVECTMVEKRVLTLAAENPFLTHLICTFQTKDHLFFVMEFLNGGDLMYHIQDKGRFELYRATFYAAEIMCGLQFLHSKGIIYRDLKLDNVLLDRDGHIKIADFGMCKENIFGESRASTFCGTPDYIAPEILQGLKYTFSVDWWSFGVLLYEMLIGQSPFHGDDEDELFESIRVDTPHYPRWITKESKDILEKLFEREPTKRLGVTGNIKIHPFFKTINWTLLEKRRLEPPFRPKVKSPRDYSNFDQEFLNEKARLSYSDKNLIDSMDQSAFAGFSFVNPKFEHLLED
# [21] = target: Protein kinase C theta type (Homo sapiens) (UniProt Q04759); assay: Inhibition of PKCtheta (unknown origin) assessed as residual activity at 1 uM by Kinomescan method relative to control
# [22] = target: Rho-associated protein kinase 2 (Homo sapiens) (UniProt O75116); assay: Inhibition of wild-type human partial length ROCK2 (M1 to T431 residues) expressed in mammalian expression system assessed as residual activity at 1 uM by Kinomescan method relative to control
# [23] = target: Serine/threonine-protein kinase Sgk3 (Homo sapiens) (UniProt Q96BR1); assay: Inhibition of wild-type human partial length SGK3 (M119 to L496 residues) expressed in mammalian expression system assessed as residual activity at 1 uM by Kinomescan method relative to control
# Chain of Serine/threonine-protein kinase Sgk3 (Homo sapiens) (Q96BR1 whole entry, the tested form may be a part): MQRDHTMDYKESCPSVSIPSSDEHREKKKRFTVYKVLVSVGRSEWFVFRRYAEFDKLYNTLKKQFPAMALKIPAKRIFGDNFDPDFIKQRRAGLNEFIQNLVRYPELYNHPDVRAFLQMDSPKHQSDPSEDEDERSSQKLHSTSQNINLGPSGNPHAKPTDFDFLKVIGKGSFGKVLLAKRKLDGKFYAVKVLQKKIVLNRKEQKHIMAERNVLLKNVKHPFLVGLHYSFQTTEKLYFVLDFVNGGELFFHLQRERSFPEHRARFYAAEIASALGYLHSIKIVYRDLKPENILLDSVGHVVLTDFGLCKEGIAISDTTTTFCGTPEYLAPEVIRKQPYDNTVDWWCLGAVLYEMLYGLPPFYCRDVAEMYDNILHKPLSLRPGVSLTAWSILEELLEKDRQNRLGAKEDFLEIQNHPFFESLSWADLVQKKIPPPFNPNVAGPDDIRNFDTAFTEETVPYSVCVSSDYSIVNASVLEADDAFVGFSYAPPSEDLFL
# [24] = target: Serine/threonine-protein kinase SIK2 (Homo sapiens) (UniProt Q9H0K1); assay: Inhibition of wild-type human full length SIK2 (M1 to N926 residues) expressed in bacterial expression system assessed as residual activity at 1 uM by Kinomescan method relative to control
# [25] = target: Tyrosine-protein kinase SYK (Homo sapiens) (UniProt P43405); assay: Inhibition of wild-type human partial length SYK (D354 to N635 residues) expressed in bacterial expression system assessed as residual activity at 1 uM by Kinomescan method relative to control
# [26] = target: Serine/threonine-protein kinase TAO2 (Homo sapiens) (UniProt Q9UL54); assay: Inhibition of wild-type human partial length TAOK2 (M1 to A320 residues) expressed in mammalian expression system assessed as residual activity at 1 uM by Kinomescan method relative to control
# [27] = target: Tyrosine-protein kinase TXK (Homo sapiens) (UniProt P42681); assay: Inhibition of wild-type human partial length TXK (L238 to W527 residues) expressed in bacterial expression system assessed as residual activity at 1 uM by Kinomescan method relative to control
# [28] = target: Death-associated protein kinase 3 (Homo sapiens) (UniProt O43293); assay: Inhibition of wild-type human partial length DAPK3 (M1 to A277 residues) expressed in bacterial expression system assessed as residual activity at 1 uM by Kinomescan method relative to control
# Chain of Death-associated protein kinase 3 (Homo sapiens) (O43293 whole entry, looked up, the tested form may be a part): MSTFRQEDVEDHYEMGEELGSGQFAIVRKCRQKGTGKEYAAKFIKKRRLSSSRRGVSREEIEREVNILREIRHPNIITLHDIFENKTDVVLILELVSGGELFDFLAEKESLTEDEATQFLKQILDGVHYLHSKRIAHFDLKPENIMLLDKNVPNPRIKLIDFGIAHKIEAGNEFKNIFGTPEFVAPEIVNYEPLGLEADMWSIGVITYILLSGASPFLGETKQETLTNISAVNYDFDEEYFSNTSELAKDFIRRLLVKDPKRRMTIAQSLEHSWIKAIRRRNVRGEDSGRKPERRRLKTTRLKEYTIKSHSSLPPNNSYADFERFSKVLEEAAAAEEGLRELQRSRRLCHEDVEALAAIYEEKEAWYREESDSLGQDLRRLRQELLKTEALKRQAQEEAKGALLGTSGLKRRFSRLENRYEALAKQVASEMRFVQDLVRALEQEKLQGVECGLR
# [29] = target: Serine/threonine-protein kinase LATS2 (Homo sapiens) (UniProt Q9NRM7); assay: Inhibition of wild-type human partial length LATS2 (Q641 to V1088 residues) expressed in mammalian expression system assessed as residual activity at 1 uM by Kinomescan method relative to control
# Chain of Cytochrome P450 3A4 (P08684 whole entry): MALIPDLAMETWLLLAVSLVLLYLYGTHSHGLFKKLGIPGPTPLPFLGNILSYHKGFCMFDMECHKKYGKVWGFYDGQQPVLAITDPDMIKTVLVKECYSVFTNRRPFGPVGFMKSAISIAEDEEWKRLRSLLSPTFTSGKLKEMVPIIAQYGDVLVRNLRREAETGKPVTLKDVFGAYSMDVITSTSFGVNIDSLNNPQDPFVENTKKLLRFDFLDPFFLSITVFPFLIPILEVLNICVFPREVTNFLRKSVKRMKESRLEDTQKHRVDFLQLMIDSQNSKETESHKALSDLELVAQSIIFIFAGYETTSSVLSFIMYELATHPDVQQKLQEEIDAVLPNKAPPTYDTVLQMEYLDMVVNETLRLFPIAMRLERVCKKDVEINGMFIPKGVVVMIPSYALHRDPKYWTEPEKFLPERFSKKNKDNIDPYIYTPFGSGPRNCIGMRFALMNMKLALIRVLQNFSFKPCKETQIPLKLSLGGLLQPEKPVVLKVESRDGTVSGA
smiles,measurement,setting,value
CCOc1nc(Nc2ccc(C(=O)N3CCOCC3)cc2OC)nc2[nH]ccc12,logD,[1],4.5
same,IC50,[2],158 µM
same,EC50,[3],> 50.1 µM
same,Activity,[4],50%
same,Activity,[5],75%
same,Activity,[6],100%
same,Activity,[7],97.1%
same,Activity,[8],92.6%
same,Activity,[9],86.3%
same,Activity,[10],121%
same,Activity,[11],92.3%
same,Activity,[12],81.3%
same,Activity,[13],100%
same,Activity,[14],96.3%
same,Activity,[15],88.4%
same,Activity,[16],104%
same,Activity,[17],101%
same,Activity,[18],101%
same,Activity,[19],103%
same,Activity,[20],99.8%
same,Activity,[21],83.7%
same,Activity,[22],91.3%
same,Activity,[23],93.7%
same,Activity,[24],97%
same,Activity,[25],92.1%
same,Activity,[26],103%
same,Activity,[27],88%
same,Activity,[28],66.9%
same,Activity,[29],96.3%
